Read-outs that look alike come from different tables or passages of the source.
Biological target: V1 receptor (Rattus norvegicus, UniProt P30560)
Test: biochemical
Type: binding

V1 receptor, sequence (P30560 whole entry): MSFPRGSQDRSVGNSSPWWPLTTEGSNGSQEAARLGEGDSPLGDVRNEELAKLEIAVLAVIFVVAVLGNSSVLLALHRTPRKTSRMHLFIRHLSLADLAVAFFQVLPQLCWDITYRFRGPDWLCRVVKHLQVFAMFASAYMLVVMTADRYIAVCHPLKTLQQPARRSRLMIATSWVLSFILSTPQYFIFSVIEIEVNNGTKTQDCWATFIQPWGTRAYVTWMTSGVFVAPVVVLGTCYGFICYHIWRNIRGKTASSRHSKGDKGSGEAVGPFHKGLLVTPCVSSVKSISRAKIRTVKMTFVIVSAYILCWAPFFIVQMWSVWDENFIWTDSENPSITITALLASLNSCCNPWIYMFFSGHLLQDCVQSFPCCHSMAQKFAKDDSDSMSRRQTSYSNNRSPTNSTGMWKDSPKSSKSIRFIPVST

SMILES	IC50 [nM]	IC50 ([H]3-Arg-vasopressin 2×10^-10 M, rat liver plasma membrane, 37° C., 10 minutes, pH 8.0) [nM]
CCN(CC)CC(O)CCCCCCOc1ccc(C(=O)N2CCC(N3C(=O)CCc4ccccc43)CC2)cc1 (stereo not drawn) [Example 184, 1-{1-[4-(7-Hydroxy-8-diethylaminooctyloxy)benzoyl]-4-piperidinyl}-3,4-dihydrocarbostyril]	39	
CCN(CC)CC(O)CCCCOc1ccc(C(=O)N2CCC(N3C(=O)CCc4ccc(F)cc43)CC2)c(OC)c1 (stereo not drawn) [Example 185, 7-Fluoro-1-{1-[4-(5-Hydroxy-6-diethylaminohexyloxy)-2-methoxybenzoyl]-4-piperidinyl}-3,4-dihydrocarbostyril]	10	
O=C(c1ccc(OCCCC(O)CN2CCCC2)cc1)N1CCC(N2C(=O)CCc3ccccc32)CC1 (stereo not drawn) [Example 186, 1-{1-[4-(4-Hydroxy-5-(1-pyrrolidinyl)pentyloxy)benzoyl]-4-piperidinyl}-3,4-dihydrocarbostyril]	63	
CN(C)CC(O)CCCCCCOc1ccc(C(=O)N2CCC(N3C(=O)CCc4ccccc43)CC2)cc1 (stereo not drawn) [Example 187, 1-{1-[4-(7-Hydroxy-8-dimethylaminooctyloxy)benzoyl]-4-piperidinyl}-3,4-dihydrocarbostyril]	40	
O=C(c1ccc(OCCCC(O)CN2CCCCC2)cc1)N1CCC(N2C(=O)CCc3ccccc32)CC1 (stereo not drawn) [Example 188]	68	
O=C(c1ccc(OCCCC(O)CN2CCOCC2)cc1)N1CCC(N2C(=O)CCc3ccccc32)CC1 (stereo not drawn) [Example 189, 1-{1-[4-(4-Hydroxy-5-morpholinopentyloxy)benzoyl]-4-piperidinyl}-3,4-dihydrocarbostyril]	130	
CCN(CC)CC(O)COCCCCCOc1ccc(C(=O)N2CCC(N3C(=O)CCc4ccccc43)CC2)cc1 (stereo not drawn) [Example 190, 1-{1-[4-(5-(2-Hydroxy-3-diethylaminopropoxy)pentyloxy)benzoyl]-4-piperidinyl}-3,4-dihydrocarbostyril]	33	
CN(C)CC(O)COCCCCCOc1ccc(C(=O)N2CCC(N3C(=O)CCc4ccccc43)CC2)cc1 (stereo not drawn) [Example 191, 1-{1-[4-(5-(2-Hydroxy-3-dimethylaminopropoxy)pentyloxy)benzoyl]-4-piperidinyl}-3,4-dihydrocarbostyril]	34	
CCN(CC)CC(O)COCCCOc1ccc(C(=O)N2CCC(N3C(=O)CCc4ccccc43)CC2)cc1 (stereo not drawn) [Example 192, 1-{1-[4-(3-(2-Hydroxy-3-diethylaminopropoxy)propoxy)benzoyl]-4-piperidinyl}-3,4-dihydrocarbostyril]	61	
Nc1ccc(C(=O)NCCCOc2ccc(C(=O)N3CCC(N4C(=O)CCc5ccccc54)CC3)cc2)cc1 [Example 193, 1-{1-[4-(3-(4-Aminobenzoylamino)propoxy)benzoyl]-4-piperidinyl}-3,4-dihydrocarbostyril]	120	
O=C(c1ccc(OCCCC[S+]([O-])c2nc3ccccc3[nH]2)cc1)N1CCC(N2C(=O)CCc3ccccc32)CC1 (stereo not drawn) [Example 194, 1-{1-[4-(4-(Benzimidazol-2-yl)sulfinylbutoxy)benzoyl]-4-piperidinyl}-3,4-dihydrocarbostyril]	350	
CC(=O)N[C@@H](CCC(N)=O)C(=O)NCCCOc1ccc(C(=O)N2CCC(N3C(=O)CCc4ccccc43)CC2)cc1 [Example 195, 1-(1-[4-(3-(α-N-Acetyl-(L)-glutaminyl)aminopropoxy)benzoyl]-4-piperidinyl}-3,4-dihydrocarbostyril]	190	
CC(=O)Nc1ccc(C(=O)NCCCOc2ccc(C(=O)N3CCC(N4C(=O)CCc5ccccc54)CC3)cc2)cc1 [Example 196, 1-(1-[4-(3-(4-Acetylaminobenzoyl)aminopropoxy)benzoyl]-4-piperidinyl}-3,4-dihydrocarbostyril]	170	
CN(C)CCCNC(=O)CCCCCOc1ccc(C(=O)N2CCC(N3C(=O)CCc4ccccc43)CC2)cc1 [Example 197, 1-(1-[4-(5-(3-Dimethylaminopropyl)aminocarbonylpentyloxy)benzoyl]-4-piperidinyl}-3,4-dihydrocarbostyril]	35	
CCNC(=O)NCCCOc1ccc(C(=O)N2CCC(N3C(=O)CCc4ccccc43)CC2)cc1 [Example 198, 1-{1-[4-(3-Ethylaminocarbonylaminopropoxy)benzoyl]-4-piperidinyl}-3,4-dihydrocarbostyril]	320	
CN(C)CCNC(=O)CCCCCOc1ccc(C(=O)N2CCC(N3C(=O)CCc4ccccc43)CC2)cc1 [Example 199, 1-[1-[4-(5-(2-Dimethylaminoethyl)aminocarbonylpentyloxy)benzoyl]-4-piperidinyl}-3,4-dihydrocarbostyril]	55	
O=C(CCCCCOc1ccc(C(=O)N2CCC(N3C(=O)CCc4ccccc43)CC2)cc1)NC1CCN(Cc2ccccc2)CC1 [Example 200, 1-{1-[4-(5-(1-Benzyl-4-piperidinyl)aminocarbonylpentyloxy)benzoyl]-4-piperidinyl}-3,4-dihydrocarbostyril]	34	
CCN(CC)CC(O)CCCCOc1ccc(C(=O)N2CCC(N3C(=O)CCc4c(F)cc(F)cc43)CC2)c(OC)c1 (stereo not drawn) [Example 201, 5,7-Difluoro-1-(1-[2-methoxy-4-(5-hydroxy-6-diethylaminohexyloxy)benzoyl]-4-piperidinyl}-3,4-dihydrocarbostyril]	8	

SMILES	IC50 [nM]	IC50 ([H]3-Arg-vasopressin 2×10^-10 M, rat liver plasma membrane, 37° C., 10 minutes, pH 8.0) [nM]
O=C(c1ccc(OCCCCC(O)CN2CCCC2)cc1)N1CCC(N2C(=O)CCc3ccccc32)CC1 (stereo not drawn) [Example 202, 1-{1-[4-(5-Hydroxy-6-(1-pyrrolidinyl)hexyloxy)benzoyl]-4-piperidinyl}-3,4-dihydrocarbostyril]	27	
CN(CCc1ccccc1)CC(O)CCCCOc1ccc(C(=O)N2CCC(N3C(=O)CCc4ccccc43)CC2)cc1 (stereo not drawn) [Example 203, 1-{1-[4-(5-Hydroxy-6-[N-(2-phenylethyl)-N-methylamino]hexyloxy)benzoyl]-4-piperidinyl)-3,4-dihydrocarbostyril]	49	
CN(CCO)CC(O)CCCCOc1ccc(C(=O)N2CCC(N3C(=O)CCc4ccccc43)CC2)cc1 (stereo not drawn) [Example 204, 1-{1-[4-(5-Hydroxy-6-[N-(2-hydroxyethyl)-N-methylamino]hexyloxy)benzoyl]-4-piperidinyl}-3,4-dihydrocarbostyril]	59	
O=C(c1ccc(OCCCCC(O)CN2CCN(c3ccccc3)CC2)cc1)N1CCC(N2C(=O)CCc3ccccc32)CC1 (stereo not drawn) [Example 205, 1-{1-[4-(5-Hydroxy-6-(4-phenyl-1-piperazinyl)hexyloxy)benzoyl]-4-piperidinyl}-3,4-dihydrocarbostyril]	120	
O=C(c1ccc(OCCCCCCC(O)CN2CCCC2)cc1)N1CCC(N2C(=O)CCc3ccccc32)CC1 (stereo not drawn) [Example 206, 1-(1-[4-(7-Hydroxy-8-(1-pyrrolidinyl)octyloxy)benzoyl]-4-piperidinyl)-3,4-dihydrocarbostyril]	30	
CSCCC(NC(C)=O)C(=O)NCCCOc1ccc(C(=O)N2CCC(N3C(=O)CCc4ccccc43)CC2)cc1 (stereo not drawn) [Example 207, 1-(1-[4-(3-(2-Acetylamino-4-methylthiobutyrylamino)propoxy)benzoyl]-4-piperidinyl}-3,4-dihydrocarbostyril]	70	
CC(=O)N[C@H](Cc1c[nH]cn1)C(=O)NCCCOc1ccc(C(=O)N2CCC(N3C(=O)CCc4ccccc43)CC2)cc1 [Example 208, 1-{1-[4-(3-[2-(R)-Acetylamino-2-(4(1H)-imidazolyl)methylacetylamino]propoxy)benzoyl]-4-piperidinyl}-3,4-dihydrocarbostyril]	100	
O=C(CCCCCOc1ccc(C(=O)N2CCC(N3C(=O)CCc4ccccc43)CC2)cc1)NC1CCNCC1 [Example 210, 1-{1-[4-(5-(4-Piperidinyl)aminocarbonylpentyloxy)benzoyl]-4-piperidinyl}-3,4-dihydrocarbostyril]	23	
NC(=O)OCCCCCCOc1ccc(C(=O)N2CCC(N3C(=O)CCc4ccccc43)CC2)cc1 [Example 212, 1-{1-[4-(6-Carbamoyloxyhexyloxy)benzoyl]-4-piperidinyl}-3,4-dihydrocarbostyril]	160	
CCN(CC)CCCCCCOc1ccc(C(=O)N2CCC(N3C(=O)CCc4ccccc43)CC2)cc1 [Example 213, 1-{1-[4-(6-Diethylaminohexyloxy)benzoyl]-4-piperidinyl}-3,4-dihydrocarbostyril]	59	
O=C(c1ccc(OCCCCCCN2CCCC2)cc1)N1CCC(N2C(=O)CCc3ccccc32)CC1 [Example 214, 1-{1-[4-(6-(1-Pyrrolidinyl)hexyloxy)benzoyl]-4-piperidinyl}-3,4-dihydrocarbostyril.]	58	
CCOc1ccc(C(=O)N2CCC(N3C(=O)CCc4c(C)cccc43)CC2)c(OC)c1 [Example 216, 5-Methyl-1-[1-(2-methoxy-4-ethoxybenzoyl)-4-piperidinyl]-3,4-dihydrocarbostyril]	41	
CC(C)NCC(O)CCCCOc1ccc(C(=O)N2CCC(N3C(=O)CCc4ccccc43)CC2)cc1 (stereo not drawn) [Example 217, 1-{1-[4-(5-Hydroxy-6-isopropylaminohexyloxy)benzoyl]-4-piperidinyl}-3,4-dihydrocarbostyril]	53	
CCN(CC(O)CCCCOc1ccc(C(=O)N2CCC(N3C(=O)CCc4ccccc43)CC2)cc1)CC1CCCCO1 (stereo not drawn) [Example 218, 1-{1-[4-(5-Hydroxy-6-[N-ethyl-N-(2-tetrahydropyranylmethyl)amino]hexyloxy)benzoyl]-4-piperidinyl}-3,4-dihydrocarbostyril]	44	
CN(CC(O)CCCCOc1ccc(C(=O)N2CCC(N3C(=O)CCc4ccccc43)CC2)cc1)CC(O)c1ccccc1 (stereo not drawn) [Example 219, 1-{1-[4-(5-Hydroxy-6-[N-methyl-N-(2-hydroxy-4-phenylethyl)amino]hexyloxy)benzoyl]-4-piperidinyl}-3,4-dihydrocarbostyril]		60
O=C(c1ccc(OCCCCC(O)CN2CCC[C@H]2CO)cc1)N1CCC(N2C(=O)CCc3ccccc32)CC1 (stereo partly drawn) [Example 220]	20	
O=C(NCCCC[C@H](NC(=O)OCc1ccccc1)C(=O)NCCCOc1ccc(C(=O)N2CCC(N3C(=O)CCc4ccccc43)CC2)cc1)OCc1ccccc1 [Example 222, 1-[1-{4-[3-(S)-{N,N'76434 -Di(benzyloxycarbonyl)lysyl)aminopropoxy]benzoyl}-4-piperidinyl]-3,4-dihydrocarbostyril]	650	
N[C@@H](Cc1ccc(O)cc1)C(=O)NCCCOc1ccc(C(=O)N2CCC(N3C(=O)CCc4ccccc43)CC2)cc1 [Example 223, 1-[1-{4-[3-(S)-Tyrosylaminopropoxy]benzoyl}-4-piperidinyl]-3,4-dihydrocarbostyril]	72	
